Assay results: patent US20250195463A1, “ORGANOMETALLIC COMPLEX, CONTROLLED-RELEASE MULTI-FUNCTIONAL DRUG, PHARMACEUTICAL COMPOSITION, PROCESSES FOR THE PREPARATION THEREOF AND THEIR USE” (FACULDADE DE CIÊNCIAS DA UNIVERSIDADE DE LISBOA, priority 2022, published 2025)

How the values were obtained:
[1] = Stability in aqueous medium (dimethyl sulfoxide/Dulbecco's Modified Eagle Medium) by UV-Vis spectroscopy; assay type: physicochemical; details: for Relative variation of the maximum absorbance of the π→π* transitions: band 292-296 nm (λmax in column head); for Relative variation of the maximum absorbance of the charge transfer bands: band 358-400 nm (λmax in column head)
Experimental: (§1) The stability of the complexes 4-11 in organic and aqueous media was evaluated over 24 h by UV-Vis spectroscopy at room temperature, in dark, on a Jasco V-660 spectrometer using quartz cuvettes (1 cm optical path length). The electronic spectra (270-900 nm) were acquired at regular periods of time (0 h, 0.25 h, 0.5 h, 0.75 h, 1 h, 2 h, 3 h, 4 h, 5 h, 6 h, 24 h) for solutions of 100% dimethyl sulfoxide (complexes 4-11) and 5% dimethyl sulfoxide/95% Dulbecco's Modified Eagle Medium (complexes 4, 5 and 8-11) or 10% dimethyl sulfoxide/90% Dulbecco's Modified Eagle Medium (complexes 6 and 7) at concentrations ranging from 7.0×10^-5 M to 3.0×10^-4 M.

[2] = Stability in organic medium (dimethyl sulfoxide) by UV-Vis spectroscopy; assay type: physicochemical; details: for Relative variation of the maximum absorbance of the charge transfer bands: band 357-425 nm (λmax in column head); for Relative variation of the maximum absorbance of the π→π* transitions: band 289-300 nm (λmax in column head)
Experimental: as §1

[3] = 10% dimethyl sulfoxide/90% Dulbecco's Modified Eagle Medium, time 0 h
[4] = 10% dimethyl sulfoxide/90% Dulbecco's Modified Eagle Medium, time 0.25 h
[5] = 10% dimethyl sulfoxide/90% Dulbecco's Modified Eagle Medium, time 0.5 h
[6] = 10% dimethyl sulfoxide/90% Dulbecco's Modified Eagle Medium, time 0.75 h
[7] = 10% dimethyl sulfoxide/90% Dulbecco's Modified Eagle Medium, time 1 h
[8] = 10% dimethyl sulfoxide/90% Dulbecco's Modified Eagle Medium, time 2 h
[9] = 10% dimethyl sulfoxide/90% Dulbecco's Modified Eagle Medium, time 3 h
[10] = 10% dimethyl sulfoxide/90% Dulbecco's Modified Eagle Medium, time 4 h
[11] = 10% dimethyl sulfoxide/90% Dulbecco's Modified Eagle Medium, time 5 h
[12] = 10% dimethyl sulfoxide/90% Dulbecco's Modified Eagle Medium, time 6 h
[13] = 10% dimethyl sulfoxide/90% Dulbecco's Modified Eagle Medium, time 24 h
[14] = 5% dimethyl sulfoxide/95% Dulbecco's Modified Eagle Medium, time 0 h
[15] = 5% dimethyl sulfoxide/95% Dulbecco's Modified Eagle Medium, time 0.25 h
[16] = 5% dimethyl sulfoxide/95% Dulbecco's Modified Eagle Medium, time 0.5 h
[17] = 5% dimethyl sulfoxide/95% Dulbecco's Modified Eagle Medium, time 0.75 h
[18] = 5% dimethyl sulfoxide/95% Dulbecco's Modified Eagle Medium, time 1 h
[19] = 5% dimethyl sulfoxide/95% Dulbecco's Modified Eagle Medium, time 2 h
[20] = 5% dimethyl sulfoxide/95% Dulbecco's Modified Eagle Medium, time 3 h
[21] = 5% dimethyl sulfoxide/95% Dulbecco's Modified Eagle Medium, time 4 h
[22] = 5% dimethyl sulfoxide/95% Dulbecco's Modified Eagle Medium, time 5 h
[23] = 5% dimethyl sulfoxide/95% Dulbecco's Modified Eagle Medium, time 6 h
[24] = 5% dimethyl sulfoxide/95% Dulbecco's Modified Eagle Medium, time 24 h

SMILES: CC(=O)C1=C[CH]([Ru-]2([PH](c3ccccc3)(c3ccccc3)c3ccccc3)[n+]3cccc4c5nccnc5c5ccc[n+]2c5c43)C=C1.O=S(=O)([O-])C(F)(F)F (centres unmarked) [compound 7]
- Relative variation of the maximum absorbance of the π→π* transitions [1, 3]: 0.0%
- Relative variation of the maximum absorbance of the charge transfer bands [1, 3]: 0.0%
- Relative variation of the maximum absorbance of the π→π* transitions [1, 4]: 0.0%
- Relative variation of the maximum absorbance of the charge transfer bands [1, 4]: 0.3%
- Relative variation of the maximum absorbance of the π→π* transitions [1, 5]: 0.1%
- Relative variation of the maximum absorbance of the charge transfer bands [1, 5]: 0.4%
- Relative variation of the maximum absorbance of the π→π* transitions [1, 6]: 0.3%
- Relative variation of the maximum absorbance of the charge transfer bands [1, 6]: 0.6%
- Relative variation of the maximum absorbance of the π→π* transitions [1, 7]: 0.1%
- Relative variation of the maximum absorbance of the charge transfer bands [1, 7]: 0.5%
- Relative variation of the maximum absorbance of the π→π* transitions [1, 8]: 0.1%
- Relative variation of the maximum absorbance of the charge transfer bands [1, 8]: 0.5%
- Relative variation of the maximum absorbance of the π→π* transitions [1, 9]: 0.0%
- Relative variation of the maximum absorbance of the charge transfer bands [1, 9]: 0.4%
- Relative variation of the maximum absorbance of the π→π* transitions [1, 10]: −0.3%
- Relative variation of the maximum absorbance of the charge transfer bands [1, 10]: 0.5%
- Relative variation of the maximum absorbance of the π→π* transitions [1, 11]: −0.2%
- Relative variation of the maximum absorbance of the charge transfer bands [1, 11]: 0.5%
- Relative variation of the maximum absorbance of the π→π* transitions [1, 12]: 0.0%
- Relative variation of the maximum absorbance of the charge transfer bands [1, 12]: 0.4%
- Relative variation of the maximum absorbance of the π→π* transitions [1, 13]: 0.3%
- Relative variation of the maximum absorbance of the charge transfer bands [1, 13]: 1.3%
- Relative variation of the maximum absorbance of the charge transfer bands ([2]; time 0 h): 0.0%
- Relative variation of the maximum absorbance of the charge transfer bands ([2]; time 0.25 h): 0.0%
- Relative variation of the maximum absorbance of the charge transfer bands ([2]; time 0.5 h): −0.1%
- Relative variation of the maximum absorbance of the charge transfer bands ([2]; time 0.75 h): −0.1%
- Relative variation of the maximum absorbance of the charge transfer bands ([2]; time 1 h): −0.1%
- Relative variation of the maximum absorbance of the charge transfer bands ([2]; time 2 h): −0.3%
- Relative variation of the maximum absorbance of the charge transfer bands ([2]; time 3 h): −0.2%
- Relative variation of the maximum absorbance of the charge transfer bands ([2]; time 4 h): −0.5%
- Relative variation of the maximum absorbance of the charge transfer bands ([2]; time 5 h): −0.3%
- Relative variation of the maximum absorbance of the charge transfer bands ([2]; time 6 h): −0.4%
- Relative variation of the maximum absorbance of the charge transfer bands ([2]; time 24 h): −0.3%

SMILES: COc1cc[n+]2c(c1)-c1cc(O)cc[n+]1[Ru-]2([CH]1C=CC=C1)[PH](c1ccccc1)(c1ccccc1)c1ccccc1.O=S(=O)([O-])C(F)(F)F (centres unmarked) [compound 10]
- Relative variation of the maximum absorbance of the π→π* transitions [1, 14]: 0.0%
- Relative variation of the maximum absorbance of the charge transfer bands [1, 14]: 0.0%
- Relative variation of the maximum absorbance of the π→π* transitions [1, 15]: 0.0%
- Relative variation of the maximum absorbance of the charge transfer bands [1, 15]: −0.8%
- Relative variation of the maximum absorbance of the π→π* transitions [1, 16]: −1.7%
- Relative variation of the maximum absorbance of the charge transfer bands [1, 16]: −0.7%
- Relative variation of the maximum absorbance of the π→π* transitions [1, 17]: −1.9%
- Relative variation of the maximum absorbance of the charge transfer bands [1, 17]: −1.0%
- Relative variation of the maximum absorbance of the π→π* transitions [1, 18]: −2.2%
- Relative variation of the maximum absorbance of the charge transfer bands [1, 18]: −1.3%
- Relative variation of the maximum absorbance of the π→π* transitions [1, 19]: −3.1%
- Relative variation of the maximum absorbance of the charge transfer bands [1, 19]: −2.3%
- Relative variation of the maximum absorbance of the π→π* transitions [1, 20]: −4.1%
- Relative variation of the maximum absorbance of the charge transfer bands [1, 20]: −3.1%
- Relative variation of the maximum absorbance of the π→π* transitions [1, 21]: −5.1%
- Relative variation of the maximum absorbance of the charge transfer bands [1, 21]: −3.6%
- Relative variation of the maximum absorbance of the π→π* transitions [1, 22]: −5.6%
- Relative variation of the maximum absorbance of the charge transfer bands [1, 22]: −4.3%
- Relative variation of the maximum absorbance of the π→π* transitions [1, 23]: −6.0%
- Relative variation of the maximum absorbance of the charge transfer bands [1, 23]: −4.8%
- Relative variation of the maximum absorbance of the π→π* transitions [1, 24]: −7.0%
- Relative variation of the maximum absorbance of the charge transfer bands [1, 24]: −5.0%
- Relative variation of the maximum absorbance of the π→π* transitions ([2]; time 0 h): 0.0%
- Relative variation of the maximum absorbance of the charge transfer bands ([2]; time 0 h): 0.0%
- Relative variation of the maximum absorbance of the π→π* transitions ([2]; time 0.25 h): 0.0%
- Relative variation of the maximum absorbance of the charge transfer bands ([2]; time 0.25 h): 0.0%
- Relative variation of the maximum absorbance of the π→π* transitions ([2]; time 0.5 h): 0.0%
- Relative variation of the maximum absorbance of the charge transfer bands ([2]; time 0.5 h): −0.2%
- Relative variation of the maximum absorbance of the π→π* transitions ([2]; time 0.75 h): −0.1%
- Relative variation of the maximum absorbance of the charge transfer bands ([2]; time 0.75 h): −0.3%
- Relative variation of the maximum absorbance of the π→π* transitions ([2]; time 1 h): 0.9%
- Relative variation of the maximum absorbance of the charge transfer bands ([2]; time 1 h): 0.7%
- Relative variation of the maximum absorbance of the π→π* transitions ([2]; time 2 h): 1.5%
- Relative variation of the maximum absorbance of the charge transfer bands ([2]; time 2 h): 1.5%
- Relative variation of the maximum absorbance of the π→π* transitions ([2]; time 3 h): 2.5%
- Relative variation of the maximum absorbance of the charge transfer bands ([2]; time 3 h): 2.5%
- Relative variation of the maximum absorbance of the π→π* transitions ([2]; time 4 h): 3.0%
- Relative variation of the maximum absorbance of the charge transfer bands ([2]; time 4 h): 3.1%
- Relative variation of the maximum absorbance of the π→π* transitions ([2]; time 5 h): 3.0%
- Relative variation of the maximum absorbance of the charge transfer bands ([2]; time 5 h): 3.2%
- Relative variation of the maximum absorbance of the π→π* transitions ([2]; time 6 h): 2.8%
- Relative variation of the maximum absorbance of the charge transfer bands ([2]; time 6 h): 3.1%
- Relative variation of the maximum absorbance of the π→π* transitions ([2]; time 24 h): 3.3%
- Relative variation of the maximum absorbance of the charge transfer bands ([2]; time 24 h): 4.2%
